From patent US9115064B2, “N-hydroxylsulfonamide derivatives as new physiologically useful nitroxyl donors” (The Johns Hopkins University, priority 2007, dated 2015) come the findings set out here.

Structures are written as SMILES.

The nature of this assay: HNO production via N2O quantification (GC headspace analysis, Angeli's salt as benchmark). Conditions: pH 7.4 in PBS buffer at 37° C.; for Nitrous oxide evolved as % of Angelis salt: relative to Angeli's salt. The format is physicochemical.

`COC(=O)c1ccccc1S(=O)(=O)NO` [Compound 1, 2-Hydroxysulfamoyl-benzoic acid methyl ester]: the “% moles N2O/moles of sample” value is 30.5% and the “Nitrous oxide evolved as % of Angelis salt” value (shortened to “Nitrous oxide evolved as %”) is 43%.

On to `CN(C)C(=O)c1ccc(Br)c(S(=O)(=O)NO)c1` [Compound 6, 4-Bromo-3-(hydroxysulfamoyl)-N,N-dimethylbenzamide], for which the “% moles N2O/moles of sample” value came out at 81% and the “Nitrous oxide evolved as %” value is recorded as 116%.

Consider `CN(C)C(=O)c1ccc(Cl)c(S(=O)(=O)NO)c1` [Compound 7, 4-Chloro-3-(hydroxysulfamoyl)-N,N-dimethylbenzamide], for which the “% moles N2O/moles of sample” value was found to be 85% and the “Nitrous oxide evolved as %” value came out at 122%.

In the case of `O=C(OCCN1CCOCC1)c1ccc(Cl)c(S(=O)(=O)NO)c1` [Compound 9, -(Morpholin-4-yl)ethyl 4-chloro-3-(hydroxysulfamoyl)benzoate], the “% moles N2O/moles of sample” value is given as 65% and the “Nitrous oxide evolved as %” value was determined as 93%.

`O=S(=O)(NO)c1ccccc1S(=O)(=O)N1CCOCC1` [Compound 8, N-Hydroxy-2-(morpholin-4-ylsulfonyl)benzene sulfonamide]: the “% moles N2O/moles of sample” value stood at 86% and the “Nitrous oxide evolved as %” value is 126%.

In the case of `[Na+].[Na+].[O-][N+]([O-])=NO` [Angeli's Salt, sodium dioxotrinitrate, reference compound], the “% moles N2O/moles of sample” value turned out to be 70.5% and the “Nitrous oxide evolved as %” value was 100%.

For `O=C(O)c1cccc(S(=O)(=O)NO)c1` [Compound 2, 3-Hydroxysulfamoyl-benzoic acid], the “% moles N2O/moles of sample” value was 19% and the “Nitrous oxide evolved as %” value is 27%.

In the case of `O=C(O)c1ccc(Br)c(S(=O)(=O)NO)c1` [Compound 4, 4-Bromo-3-hydroxysulfamoyl-benzoic acid], the “% moles N2O/moles of sample” value is 82% and the “Nitrous oxide evolved as %” value is 117%.

Consider `O=C(O)c1ccc(Cl)c(S(=O)(=O)NO)c1` [Compound 3, 4-Chloro-3-hydroxysulfamoyl-benzoic acid], for which the “% moles N2O/moles of sample” value is on record as 81.5% and the “Nitrous oxide evolved as %” value was 116%.

On to `O=C(c1cc(Br)c(S(=O)(=O)NO)s1)N1CCOCC1` [Compound 98, 3-Bromo-N-hydroxy-5-(morpholin-4-ylcarbonyl)thiophene-2-sulfonamide], for which the “% moles N2O/moles of sample” value is recorded as 81% and the “Nitrous oxide evolved as %” value amounted to 116%.

On to `O=C(c1ccc(Br)c(S(=O)(=O)NO)c1)N1CCOCC1` [Compound 5, -Bromo-N-hydroxy-5-(morpholine-4-carbonyl)-benzenesulfonamide], for which the “% moles N2O/moles of sample” value was determined as 80.5% and the “Nitrous oxide evolved as %” value worked out at 115%.

On to `O=C(NCCN1CCOCC1)c1cc(Br)c(S(=O)(=O)NO)s1` [Compound 97, 4-Bromo-5-(hydroxysulfamoyl)-N-[2-(morpholin-4-yl)ethyl]thiophene-2-carboxamide], for which the “% moles N2O/moles of sample” value came to 92% and the “Nitrous oxide evolved as %” value stood at 131%.
